Reference: ChEMBL document CHEMBL4673405, “Novel Linker Variants of Antileishmanial/Antitubercular 7-Substituted 2-Nitroimidazooxazines Offer Enhanced Solubility” (ACS Med Chem Lett, 2021)
pIC50: −log10 of the molar value. ≈ marks a conversion by molar mass, not a printed value.

How the values were obtained:
Leishmania donovani [1] = experiment: Antileishmanial activity against Leishmania donovani MHOM/ET/67/HU3 amastigotes infected in BALB/c mouse model of visceral leishmaniasis assessed as reduction in parasite burden in liver at 12.5 mg/kg, po administered once daily for 5 consecutive days starting after 7 days post-infection by microscopic analysis relative to control; type: functional; set-up: scale not given: the % may be the effect or the level left; settings: time 5 day
Leishmania donovani [2] = experiment: Antileishmanial activity against Leishmania donovani MHOM/ET/67/HU3 amastigotes infected in BALB/c mouse model of visceral leishmaniasis assessed as reduction in parasite burden in liver at 25 mg/kg, po administered once daily for 5 consecutive days starting after 7 days post-infection by microscopic analysis relative to control; type: functional; set-up: scale not given: the % may be the effect or the level left; settings: time 5 day
Leishmania infantum = experiment: Antileishmanial activity against Leishmania infantum MHOM/MA(BE)/67 amastigotes infected in mouse peritoneal macrophages incubated for 5 days by Giemsa staining based assay; type: functional, organism-based; settings: MHOM/MA(BE)/67, Peritoneal macrophage, 120 h
MRC5 = experiment: Cytotoxicity against human MRC5 cells assessed as reduction in cell viability measured after 72 hrs by resazurin assay; type: ADME, cell-based; settings: MRC5, 72 h
[3] = Aqueous solubility of the compound at pH 7 sonicated for 15 mins by HPLC analysis; settings: aqueous medium
[4] = Microsomal stability in mouse liver microsomes assessed as parent compound remaining at 1 uM measured up to 60 mins in presence of NADPH by LC-MS/MS analysis
Leishmania donovani [5] = experiment: Antileishmanial activity against Leishmania donovani MHOM/ET/67/HU3 amastigotes infected in BALB/c mouse model of visceral leishmaniasis assessed as reduction in parasite burden in liver at 50 mg/kg, po administered once daily for 5 consecutive days starting after 7 days post-infection by microscopic analysis relative to control; type: functional; set-up: scale not given: the % may be the effect or the level left; settings: time 5 day
[6] = Microsomal stability in human liver microsomes assessed as parent compound remaining at 1 uM measured up to 60 mins in presence of NADPH by LC-MS/MS analysis
[7] = Solubility of the compound in 0.1 M HCl at pH 1 sonicated for 15 mins by HPLC analysis; type: physicochemical
[8] = AUClast in BALB/c mouse at 1 mg/kg, iv measured up to 24 hrs by LC-MS/MS analysis; settings: in vivo
[9] = Clearance in BALB/c mouse at 1 mg/kg, iv measured up to 24 hrs by LC-MS/MS analysis; settings: in vivo
[10] = Initial plasma concentration in BALB/c mouse at 1 mg/kg, iv measured up to 24 hrs by LC-MS/MS analysis
[11] = Half life in BALB/c mouse at 25 mg/kg, po measured up to 24 hrs by LC-MS/MS analysis; type: ADME, organism-based; settings: in vivo
[12] = Half life in BALB/c mouse at 1 mg/kg, iv measured up to 24 hrs by LC-MS/MS analysis; settings: in vivo
[13] = Volume of distribution at steady state in BALB/c mouse at 1 mg/kg, iv measured up to 24 hrs by LC-MS/MS analysis; settings: in vivo
in vivo [14] = settings: BALB/c, mouse, po, 25 mg/kg
in vivo [15] = settings: BALB/c, mouse, po, 25 mg/kg; remark: listed apart in the source
Description: AUClast in BALB/c mouse at 25 mg/kg, po measured up to 24 hrs by LC-MS/MS analysis

in vivo [16] = settings: BALB/c, mouse, po, 25 mg/kg; remark: listed apart in the source
in vivo [17] = settings: BALB/c, mouse, po, 25 mg/kg; remark: listed apart in the source

pIC50 (Leishmania infantum) | Compound | pIC50 (MRC5) | other results
6.52 | CC1(COCc2ccc(OC(F)(F)F)cc2)CCn2cc([N+](=O)[O-])nc2O1 (stereo unspecified) | ≤ 4.40 | –
5.66 | CC1(CNS(=O)(=O)c2ccc(OC(F)(F)F)cc2)CCn2cc([N+](=O)[O-])nc2O1 (stereo unspecified) | ≤ 4.40 | –
6.70 | C[C@@]1(COC(=O)Nc2ccc(OC(F)(F)F)cc2)CCn2cc([N+](=O)[O-])nc2O1 | ≤ 4.40 | Activity (Leishmania donovani [1]): 31%; Activity (Leishmania donovani [2]): 51%; solubility at 0.25 h [3]: 7.9 µg/mL (≈ 19 µM)
5.77 | CC1(CNC(=O)COc2ccc(OC(F)(F)F)cc2)CCn2cc([N+](=O)[O-])nc2O1 (stereo unspecified) | ≤ 4.40 | –
5.85 | CC1(CNC(=O)Nc2ccc(OC(F)(F)F)cc2)CCn2cc([N+](=O)[O-])nc2O1 (stereo unspecified) | ≤ 4.40 | remaining at 1 h, 1 µM [4]: 39%; Activity (Leishmania donovani [5]): 36%; remaining at 1 h, 1 µM [6]: 54%; solubility at 0.25 h [3]: 121 µg/mL (≈ 291 µM)
6.89 | CC1(CNCc2ccc(OC(F)(F)F)cc2)CCn2cc([N+](=O)[O-])nc2O1 (stereo unspecified) | ≤ 4.40 | solubility at 0.25 h [7]: 33000 µg/mL (≈ 85400 µM); solubility at 0.25 h [3]: 124 µg/mL (≈ 321 µM)
5.70 | CC1(CNC(=O)Cc2ccc(OC(F)(F)F)cc2)CCn2cc([N+](=O)[O-])nc2O1 (stereo unspecified) | ≤ 4.40 | –
5.74 | CC1(CNC(=O)NCc2ccc(OC(F)(F)F)cc2)CCn2cc([N+](=O)[O-])nc2O1 (stereo unspecified) | ≤ 4.40 | –
5.85 | CC1(CNC(=O)c2ccc(OC(F)(F)F)cc2)CCn2cc([N+](=O)[O-])nc2O1 (stereo unspecified) | ≤ 4.40 | Activity (Leishmania donovani [5]): 71%; solubility at 0.25 h [3]: 78 µg/mL (≈ 195 µM)
6.80 | CC1(CNC(=O)OCc2ccc(OC(F)(F)F)cc2)CCn2cc([N+](=O)[O-])nc2O1 (stereo unspecified) | ≤ 4.40 | solubility at 0.25 h [3]: 28 µg/mL (≈ 65.1 µM)
6.49 | CC1(COC(=O)NCc2ccc(OC(F)(F)F)cc2)CCn2cc([N+](=O)[O-])nc2O1 (stereo unspecified) | ≤ 4.40 | solubility at 0.25 h [3]: 117 µg/mL (≈ 272 µM)
5.89 | CC1(CNC(=O)c2cccc(OC(F)(F)F)c2)CCn2cc([N+](=O)[O-])nc2O1 (stereo unspecified) | ≤ 4.40 | remaining at 1 h, 1 µM [4]: 36%; remaining at 1 h, 1 µM [6]: 58%; solubility at 0.25 h [3]: 14 µg/mL (≈ 35 µM)
6.31 | CC1(COCC(=O)Nc2ccc(OC(F)(F)F)cc2)CCn2cc([N+](=O)[O-])nc2O1 (stereo unspecified) | ≤ 4.40 | –

More lines, now with the values behind:

Compound | pIC50 (Leishmania infantum) | pIC50 (MRC5) | other results
CC1(COc2ccc(OC(F)(F)F)cc2)CCn2cc([N+](=O)[O-])nc2O1 (stereo unspecified) | – | – | Activity (Leishmania donovani [1]): 100%; Activity (Leishmania donovani [2]): 100%
CC1(COc2ccc(Cl)cc2)CCn2cc([N+](=O)[O-])nc2O1 (stereo unspecified) | 6.89 | ≤ 4.40 | –
O=C(NCc1ccc(OC(F)(F)F)cc1)OCC1CCn2cc([N+](=O)[O-])nc2O1 (stereo unspecified) | 6.74 | ≤ 4.40 | –
CN(CC1(C)CCn2cc([N+](=O)[O-])nc2O1)c1ccc(F)cc1 (stereo unspecified) | 6.32 | ≤ 4.40 | –
O=C(NCc1ccc(OC(F)(F)F)cc1)N(Cc1ccc(OC(F)(F)F)cc1)C(=O)OCC1CCn2cc([N+](=O)[O-])nc2O1 (stereo unspecified) | 6.10 | ≤ 4.40 | –
O=C(NCC1CCn2cc([N+](=O)[O-])nc2O1)c1ccc(OC(F)(F)F)cc1 (stereo unspecified) | 5.82 | ≤ 4.40 | –
CC1(COC(=O)N(Cc2ccc(OC(F)(F)F)cc2)C(=O)NCc2ccc(OC(F)(F)F)cc2)CCn2cc([N+](=O)[O-])nc2O1 (stereo unspecified) | 5.89 | ≤ 4.40 | –
O=[N+]([O-])c1cn2c(n1)OC(CNc1ccc(OC(F)(F)F)cc1)CC2 (stereo unspecified) | 6.82 | ≤ 4.40 | –
CN(CC1(C)CCn2cc([N+](=O)[O-])nc2O1)c1ccc(C(F)(F)F)nc1 (stereo unspecified) | 5.66 | ≤ 4.40 | –
CN(CC1CCn2cc([N+](=O)[O-])nc2O1)c1ccc(OC(F)(F)F)cc1 (stereo unspecified) | 6.66 | ≤ 4.40 | –
O=C(Nc1ccc(OC(F)(F)F)cc1)OCC1CCn2cc([N+](=O)[O-])nc2O1 (stereo unspecified) | 6.44 | ≤ 4.40 | AUC(0-t) at 24 h [8]: 1170 ng·h/mL; clearance at 24 h [9]: 14 mL/min/kg; C0 at 24 h [10]: 740 ng/mL; half-life [11]: 1.6 h; half-life at 24 h [12]: 1.2 h; Vd at 24 h [13]: 1.6 L/kg; Cmax at 24 h (in vivo [14]): 9600 ng/mL; AUC(0-t) at 24 h (in vivo [15]): 35400 ng·h/mL; Tmax at 24 h (in vivo [16]): 1 h; bioavailability at 24 h (in vivo [17]): 100%; solubility at 0.25 h [3]: 4.5 µg/mL (≈ 11.2 µM)
CN(CC1(C)CCn2cc([N+](=O)[O-])nc2O1)c1ccc(Cl)cc1 (stereo unspecified) | 6.51 | ≤ 4.40 | –
CC1(CNS(=O)(=O)c2cccc(OC(F)(F)F)c2)CCn2cc([N+](=O)[O-])nc2O1 (stereo unspecified) | 5.70 | ≤ 4.40 | –
CC1(CNc2ccc(Cl)cc2)CCn2cc([N+](=O)[O-])nc2O1 (stereo unspecified) | 6.54 | ≤ 4.40 | –
O=C(NCC1CCn2cc([N+](=O)[O-])nc2O1)Nc1ccc(OC(F)(F)F)cc1 (stereo unspecified) | 5.48 | ≤ 4.40 | –
CC1(COc2ccc(F)cc2)CCn2cc([N+](=O)[O-])nc2O1 (stereo unspecified) | 6.35 | ≤ 4.40 | –
CC1(CNC(=O)c2ccccc2OC(F)(F)F)CCn2cc([N+](=O)[O-])nc2O1 (stereo unspecified) | 5.00 | ≤ 4.40 | –
CN(CC1(C)CCn2cc([N+](=O)[O-])nc2O1)c1ccc(OC(F)(F)F)cc1 (stereo unspecified) | 6.57 | ≤ 4.40 | solubility at 0.25 h [7]: 4.6 µg/mL (≈ 11.9 µM); Activity (Leishmania donovani [5]): 58%; solubility at 0.25 h [3]: 1.5 µg/mL (≈ 3.88 µM)
CC1(CNc2ccc(F)cc2)CCn2cc([N+](=O)[O-])nc2O1 (stereo unspecified) | 6.03 | ≤ 4.40 | –
CC1(COC(=O)Nc2ccccc2OC(F)(F)F)CCn2cc([N+](=O)[O-])nc2O1 (stereo unspecified) | 6.19 | ≤ 4.40 | –
